Holding throughout (format): cell-based
For experiment [1], the system named is NHEJ activity in PEO1 cells. In words: NHEJ end-joining reporter assay, PEO1. As to conditions: 72 hours. An excerpt:
(§1) FIG. 3. Error-prone NHEJ activity is enhanced by PARP inhibitors in PEO1 cells. (A) Schematic of the in vivo NHEJ assay. Pem1-Ad2-EGFP is an EGFP-containing vector with a 2.4 kb intron (Pem1) and one exon (Ad2) inserted into the EGFP cassette. Pem1-Ad2-EGFP was cut with either HindIII or I-SceI to produce linearized substrate with compatible overhangs or incompatible inverted overhangs, respectively. Successfully recircularized plasmid will produce intact EGFP, which can be assayed via flow cytometry. Any residual uncut plasmid, due to the insertion of the Ad2 exon within the EGFP open reading frame, will be EGFP negative. A pCherry plasmid was co-transfected with substrate to correct for transfection efficiency. (B) and (C) Quantitation of NHEJ activity in PEO1 and PEO4 cells transfected with HindIII substrate (B) or I-SceI substrate (C) and exposed to ABT-888 for 72 hours. Each data point represents the mean±SEM from 3 independent experiments.
(§2) The end-joining reporter plasmid pEGFP-Pem1-Ad2 described elsewhere (Wang et al., Nucleic Acids Res., 34:6170-6182 (2006); Seluanov et al., Proc. Natl. Acad. Sci. USA, 101:7624-7629 (2004); and Fattah et al., PLoS Genet., 6:e1000855 (2010); see also (FIG. 3A)) was provided by E. Hendrickson (University of Minnesota, Minneapolis, Minn.) and was digested with either HindIII or I-SceI for 12 hours, and gel purified using a Qiagen gel extraction kit. […]
Background: In a reporter assay the amount or activity of a reporter protein is the signal.

Experiment [2] relates to NHEJ activity in PEO4 cells. Briefly: NHEJ end-joining reporter assay, PEO4. As to conditions: 72 hours.
Excerpt: as §1, §2

For experiment [3], the system named is DNA-PKcs-reconstituted M059J cells. Briefly: Clonogenic assay, M059J+DNA-PKcs. As to conditions: BRCA1 shRNA. On the procedure: (§3) FIG. 6. […] (A) BRCA1-deficient HCC1937 and BRCA1-reconstituted HCC1937/BRCA1 cells were continuously exposed to ABT-888 in the presence or absence of 125 nM DNA-PKi and assayed for clonogenic survival. Inset, Western blots of cell lysates from HCC1937 and HCC1937/BRCA1. (B) Western blots of M059J and reconstituted M059J+DNA-PKcs lines showing the restoration of DNA-PK expression and the shRNA-mediated knockdown of BRCA1. (C) Clonogenic survival of shRNA transfected M059J/M059J+DNA-PKcs lines treated with ABT-888 for 72 hours. (D) Clonogenic survival of ATM-deficient GM16666 or ATM-reconstituted GM16667 fibroblasts. Cells were exposed to ABT-888 for 48 hours in the presence or absence of 250 nM DNA-PKi, washed, and allowed to form colonies. Inset, Western blots of lysates from GM16666 and GM16667 fibroblasts. […] Results are representative of 3 independent experiments.
(§4) All siRNA oligonucleotides were purchased from Ambion, Inc. (Austin, Tex.). Sequences, with references, are provided below. PEO1 and PEO4 cells were transfected with 150 picomoles of siRNA using the HiPerfect lipid transfection reagent (Qiagen; Valencia, Calif.). […]
(§5) Colony formation assays were performed on siRNA-transfected PEO1 and PEO4 cells 48 hours after the second transfection. […] Colonies containing ≧50 cells were scored manually. […]

Experiment [4] relates to parental M059J cells lacking DNA-PKcs. Briefly: Clonogenic assay, M059J. As to conditions: BRCA1 shRNA. As for the experimental part: as §3, §4, §5
Experiment [5] concerns ATM-deficient GM16666 fibroblasts. Briefly: Clonogenic assay, GM16666. The following applies: GM16666 cells versus ATM-reconstituted GM16667, 48 hours. On the procedure:
as §3
(§6) Colony formation assays were performed on siRNA-transfected PEO1 and PEO4 cells 48 hours after the second transfection. Cells were trypsinized and plated at 750 cells/plate in triplicate 60-mm dishes containing medium A, allowed to grow 10-14 days, and stained with Coomassie Brilliant Blue. Colonies containing ≧50 cells were scored manually. […]

For experiment [6], the system named is BRCA1-deficient HCC1937 cells. Briefly: Clonogenic assay, HCC1937. The following applies: continuous exposure, 125 nM DNA-PKi. On the procedure:
as §3, §6

Entries after “also recorded” stand apart in the source; their conditions may differ.

Regarding `C[C@]1(c2nc3c(C(N)=O)cccc3[nH]2)CCCN1` [ABT-888], in experiment [1] (PEO1 cells compared to PEO4 cells), the “end-joining of I-SceI-linearized substrate” value is recorded as “significantly increased; also recorded: pronounced increase in end-joining”. In addition, the “end-joining of HindIII-linearized substrate” value in experiment [1] (PEO1 cells) and in experiment [2] was “little effect; also recorded: small increase in end-joining” in each case. Also, the “clonogenic sensitivity to ABT-888 after BRCA1 knockdown” value in experiment [3] was “sensitized”; in experiment [4], “not sensitized”. The clonogenic sensitivity entry in experiment [5] is “heightened sensitivity”.

In the case of `CCN1CCN(CC(=O)Nc2ccc(-c3cccc4c(=O)cc(N5CCOCC5)oc34)c3sc4ccccc4c23)CC1` [AZ 12594248], the “effect on ABT-888 sensitivity (clonogenic survival)” value in experiment [6] is on record as “diminished ABT-888 sensitivity”.

Source of the values: patent US8729048B2, “Methods and materials for assessing responsiveness to PARP inhibitors and platinating agents” (Mayo Foundation for Medical Education and Research, priority 2011, dated 2014).
